ChEMBL document CHEMBL4024742, “Pharmaceutical Approaches to Target Antibiotic Resistance Mechanisms” (J Med Chem, 2017)
Converted amounts (≈) assume the structure as drawn. Blank lines part the entries; values can stand above or below the compound they belong to.

What was measured:
[1] = test system: Acinetobacter baumannii; experiment: Antibiofilm activity against multi drug-resistant Acinetobacter baumannii ATCC 19606 assessed as biofilm dispersion after 24 hrs by crystal violet staining based assay; assay type: functional; settings: ATCC 19606 = CIP 70.34 = JCM 6841, 24 h
[2] = test system: Staphylococcus aureus; experiment: Antibiofilm activity against methicillin-resistant Staphylococcus aureus BAA-44 at 100 uM after 24 hrs by crystal violet staining based assay; assay type: functional; settings: BAA-44, 24 h
[3] = test system: Staphylococcus aureus; experiment: Antibiofilm activity against methicillin-resistant Staphylococcus aureus BAA-44 after 24 hrs by crystal violet staining based assay; assay type: functional; settings: BAA-44, 24 h
[4] = test system: Staphylococcus aureus; experiment: Inhibition of biofilm formation in Staphylococcus aureus ATCC 43866 at 25 ug/ml after 24 hrs by MTT assay; assay type: functional; settings: ATCC 43866, 24 h
[5] = test system: Staphylococcus aureus; experiment: Inhibition of biofilm formation in Staphylococcus aureus ATCC 29213 at 6.2 ug/ml after 24 hrs by MTT assay; assay type: functional; settings: ATCC 29213, 24 h
[6] = test system: Staphylococcus epidermidis; experiment: Antibacterial activity against planktonic Staphylococcus epidermidis RP62A after 24 hrs by broth microdilution method; assay type: functional
[7] = test system: Staphylococcus aureus; experiment: Antibacterial activity against planktonic Staphylococcus aureus ATCC 43866 after 24 hrs by broth microdilution method; assay type: functional; settings: ATCC 43866, 24 h
[8] = test system: Staphylococcus aureus; experiment: Antibacterial activity against planktonic Staphylococcus aureus ATCC 29213 after 24 hrs by broth microdilution method; assay type: functional; settings: ATCC 29213, 24 h
[9] = target: T1, Quinolone resistance protein NorA (Staphylococcus aureus, UniProt P0A0J7); experiment: Inhibition of Staphylococcus aureus 1199B NorA assessed as reduction in ethidium bromide efflux by fluorescence assay
T1 sequence (P0A0J7 whole entry): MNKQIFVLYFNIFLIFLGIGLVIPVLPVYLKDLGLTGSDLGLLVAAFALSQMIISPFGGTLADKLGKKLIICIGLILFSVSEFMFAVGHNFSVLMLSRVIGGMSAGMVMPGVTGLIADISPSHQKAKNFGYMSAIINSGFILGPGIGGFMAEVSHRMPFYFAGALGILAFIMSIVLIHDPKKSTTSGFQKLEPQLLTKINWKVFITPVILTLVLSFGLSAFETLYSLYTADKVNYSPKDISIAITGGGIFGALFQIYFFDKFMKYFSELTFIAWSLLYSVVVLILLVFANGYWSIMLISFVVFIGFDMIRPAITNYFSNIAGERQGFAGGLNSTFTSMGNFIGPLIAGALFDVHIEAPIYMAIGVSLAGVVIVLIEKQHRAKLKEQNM

[10] = test system: Staphylococcus aureus; experiment: Antibacterial activity against methicillin-sensitive Staphylococcus aureus by broth microdilution method; assay type: functional
[11] = test system: Staphylococcus aureus; experiment: Potentiation of ciprofloxacin induced-antimicrobial activity against Staphylococcus aureus ATCC 29213 assessed as fold reduction in ciprofloxacin MIC at 31.25 uM by broth microdilution method; assay type: functional
[12] = test system: Staphylococcus aureus; experiment: Antibacterial activity against glycopeptide-intermediate Staphylococcus aureus by broth microdilution method; assay type: functional
[13] = test system: Pseudomonas aeruginosa; experiment: Antibiofilm activity against wild-type Pseudomonas aeruginosa PAO1 after 24 hrs by crystal violet staining based assay; assay type: functional; settings: PAO1, 24 h
[14] = Inhibition of bacterial beta-lactamase CTX-M-9 using nitrocefin as substrate by spectrophotometric analysis; design: species or system Bacteria
[15] = test system: Enterobacter; experiment: Antimicrobial activity against Enterobacter; assay type: functional
[16] = Inhibition of bacterial beta-lactamase CMY-2 using nitrocefin as substrate by spectrophotometric analysis; design: species or system Bacteria
[17] = test system: Pseudomonas aeruginosa; experiment: Antimicrobial activity against Pseudomonas aeruginosa; assay type: functional
[18] = Inhibition of Escherichia coli PBP2
[19] = test system: Escherichia coli; experiment: Antimicrobial activity against Escherichia coli; assay type: functional
[20] = Inhibition of bacterial beta-lactamase TEM-1 using nitrocefin as substrate by spectrophotometric analysis; design: species or system Bacteria
[21] = Inhibition of bacterial beta-lactamase KPC-2 using nitrocefin as substrate by spectrophotometric analysis; design: species or system Bacteria
[22] = test system: Escherichia coli; experiment: Potentiation of piperacillin induced-antimicrobial activity against Escherichia coli AB1157 assessed as fold reduction in piperacillin MIC at 12.5 uM by broth microdilution method; assay type: functional
[23] = test system: Escherichia coli; experiment: Potentiation of ciprofloxacin induced-antimicrobial activity against Escherichia coli AB1157 assessed as fold reduction in ciprofloxacin MIC at 12.5 uM by broth microdilution method; assay type: functional
[24] = test system: Escherichia coli; experiment: Potentiation of levofloxacin induced-antimicrobial activity against Escherichia coli AB1157 assessed as fold reduction in levofloxacin MIC at 12.5 uM by broth microdilution method; assay type: functional
[25] = test system: Escherichia coli; experiment: Potentiation of 0.016 ug/ml ciprofloxacin induced-antimicrobial activity against Escherichia coli AB1157 assessed as fold reduction in cell viability at 3.13 uM after 4 hrs by time kill assay; assay type: functional
[26] = test system: Escherichia coli; experiment: Potentiation of ciprofloxacin induced-antimicrobial activity against multi drug-resistant Escherichia coli AG112 assessed as fold reduction in ciprofloxacin MIC at 100 ug/ml by broth microdilution method; assay type: functional
[27] = test system: Escherichia coli; experiment: Potentiation of tetracycline induced-antimicrobial activity against multi drug-resistant Escherichia coli AG112 assessed as fold reduction in tetracycline MIC at 100 ug/ml by broth microdilution method; assay type: functional
[28] = test system: Escherichia coli; experiment: Potentiation of florfenicol induced-antimicrobial activity against multi drug-resistant Escherichia coli AG112 assessed as fold reduction in florfenicol MIC at 100 ug/ml by broth microdilution method; assay type: functional
[29] = test system: Staphylococcus aureus; experiment: Inhibition of biofilm formation in Staphylococcus aureus 702 at 0.045 ug/ml after 24 hrs by MTT assay; assay type: functional; settings: Staphylococcus aureus, 702, 24 h
[30] = test system: Staphylococcus aureus; experiment: Inhibition of biofilm formation in Staphylococcus aureus 657 at 0.045 ug/ml after 24 hrs by MTT assay; assay type: functional; settings: Staphylococcus aureus, 657, 24 h
[31] = test system: Staphylococcus aureus; experiment: Inhibition of biofilm formation in Staphylococcus aureus ATCC 29213 at 0.045 ug/ml after 24 hrs by MTT assay; assay type: functional; settings: ATCC 29213, 24 h
[32] = test system: Staphylococcus aureus; experiment: Inhibition of biofilm formation in Staphylococcus aureus ATCC 25923 at 0.045 ug/ml after 24 hrs by MTT assay; assay type: functional; settings: ATCC 25923, 24 h
[33] = test system: Staphylococcus epidermidis; experiment: Inhibition of biofilm formation in Staphylococcus epidermidis DSM 3269 at 0.045 ug/ml after 24 hrs by MTT assay; assay type: functional; settings: DSM 3269, 24 h
[34] = test system: Staphylococcus epidermidis; experiment: Inhibition of biofilm formation in Staphylococcus epidermidis RP62A at 0.045 ug/ml after 24 hrs by MTT assay; assay type: functional
[35] = test system: Staphylococcus aureus; experiment: Antibiofilm activity against methicillin-resistant Staphylococcus aureus BAA-1770; assay type: functional
[36] = test system: Staphylococcus aureus; experiment: Antibiofilm activity against methicillin-resistant Staphylococcus aureus BAA-1765; assay type: functional
[37] = test system: Staphylococcus aureus; experiment: Antibiofilm activity against methicillin-resistant Staphylococcus aureus BAA-43300; assay type: functional

Compound: CCCCOc1ccc(/C=C(\C)Cn2cc(CCCCCc3c[nH]c(N)n3)nn2)cc1
IC50 [1]: 44.7 µM
inhibition at 100 µM [2]: > 94%
IC50 [3]: 8.55 µM

MIC [6]: 1.5 to 12.5 µg/mL (≈ 5.24 to 43.7 µM)
MIC [7]: 1.5 to 12.5 µg/mL (≈ 5.24 to 43.7 µM)
MIC [8]: 1.5 to 12.5 µg/mL (≈ 5.24 to 43.7 µM)
Compound: Cc1nn(C)c([N-]C(=O)c2ccc([N+](=O)[O-])cc2)c1[N+]#N
inhibition at 25 µg/mL [4]: 69 to 96%
inhibition at 6.2 µg/mL [5]: 86.5%

Compound: COc1cc(O)c2c(C)c(-c3ccccc3)c(=O)[nH]c2c1
IC50 [9]: 18 µM
MIC [10]: 17.6 to 35.1 µg/mL (≈ 62.6 to 125 µM)
fold change (FC) [11]: 4
MIC [12]: 17.6 to 35.1 µg/mL (≈ 62.6 to 125 µM)

IC50 [13]: 4 µM
Compound: Cc1cc2nc(N)[nH]c2cc1C

IC50 [14]: 0.008 to 0.327 µM
MIC [15]: ≤ 2 µg/mL
IC50 [16]: 0.008 to 0.327 µM
MIC [17]: ≤ 2 µg/mL
IC50 [18]: 3.2 µM
MIC [19]: ≤ 2 µg/mL
IC50 [20]: 0.008 to 0.327 µM
IC50 [21]: 0.008 to 0.327 µM
Compound: CC(=O)NNC(=O)[C@@H]1CC[C@@H]2CN1C(=O)N2OS(=O)(=O)[O-].[Na+]

Compound: CC1(C)Cc2c(C#N)c(SCCc3ccccc3)nc(N3CCOCC3)c2CO1
fold change (FC) [22]: 8
fold change (FC) [23]: 2
fold change (FC) [24]: 4
fold change (FC) [25]: 10000

Compound: c1ccc2c(CN3CCNCC3)cccc2c1
fold change (FC) [26]: 4
fold change (FC) [27]: 4
fold change (FC) [28]: 4

Compound: O=C(c1cc(Br)ccc1O)c1[nH]c(Cl)c(Cl)c1Br
inhibition at 0.045 µg/mL [29]: > 50%
inhibition at 0.045 µg/mL [30]: > 50%
inhibition at 0.045 µg/mL [31]: > 50%
inhibition at 0.045 µg/mL [32]: > 50%
inhibition at 0.045 µg/mL [33]: > 50%
inhibition at 0.045 µg/mL [34]: > 50%

Compound: CCCCCc1ccc(C(=O)NCCn2cc(CCCCCc3c[nH]c(NCc4ccc(CCCC)cc4)n3)nn2)cc1
IC50 [35]: 16 to 18 µM
IC50 [36]: 16 to 18 µM
IC50 [37]: 16 to 18 µM
